Results on five molecules are retold here after article PMC7781311 (bioRxiv, 2021).

Read-outs that look alike come from different tables or passages of the source.

The subject of data set [1] is SARS-CoV-2-S pseudotyped particles (PP). The format is cell-based. The following applies: Calu-3 cells.
The next data set concerns the target TMPRSS2 (Homo sapiens, UniProt O15393). The data set is described as follows: TMPRSS2 biochemical. The settings on record: enzyme assay, maximal efficacy.
The next data set relates to Calu3 cells. The settings on record: same protocol without PP, ATP content.
The nature of the next data set: in vitro. The following applies: human.

TMPRSS2, sequence (O15393 whole entry): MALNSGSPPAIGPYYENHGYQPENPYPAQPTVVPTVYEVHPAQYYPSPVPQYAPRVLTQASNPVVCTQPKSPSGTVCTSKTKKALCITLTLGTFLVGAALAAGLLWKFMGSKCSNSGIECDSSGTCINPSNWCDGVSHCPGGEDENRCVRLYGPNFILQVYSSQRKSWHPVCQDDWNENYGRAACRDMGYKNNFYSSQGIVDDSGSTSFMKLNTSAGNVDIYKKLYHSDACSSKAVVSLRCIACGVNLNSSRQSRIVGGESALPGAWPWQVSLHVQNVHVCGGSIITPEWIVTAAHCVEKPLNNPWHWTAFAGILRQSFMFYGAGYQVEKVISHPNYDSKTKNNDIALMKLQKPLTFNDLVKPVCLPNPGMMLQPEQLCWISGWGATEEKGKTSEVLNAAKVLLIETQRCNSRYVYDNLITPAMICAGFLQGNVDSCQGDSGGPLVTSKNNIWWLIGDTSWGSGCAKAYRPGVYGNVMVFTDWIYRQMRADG

Turning to `C=Cc1cc(C(=O)Nc2ccc(C(=N)N)cc2)c(-c2ccc(C(=O)NCC3CC3)nc2C(=O)O)cc1OC` [NCGC00522636, Avoralstat], in data set [1], the “Activity in the PP entry assay (in words)” value (from here on “Activity”) is listed as “comparable inhibition activity to camostat”.

As for `CN(C)C(=O)COC(=O)Cc1ccc(OC(=O)c2ccc(NC(=N)N)cc2)cc1` [NCGC00167526, Camostat], on TMPRSS2, the “TMPMSS2 Efficacy” value stood at 100%. In addition, the “Activity” value in data set [1] is “high potency and efficacy”. Moreover, the “Calu3 cytotoxicity Efficacy” value in the data set on Calu3 cells was 0%.

With `CCOC(=O)c1ccc(OC(=O)CCCCCNC(=N)N)cc1` [NCGC00025297, Gabexate], the entries for the “Activity” value in data set [1] (listed as Gabexate) and in data set [1] (listed as gabexate) were “inactive” and “did not exhibit activity”, respectively. Further, the “Calu3 cytotoxicity Efficacy” value in the data set on Calu3 cells came to 0%.

For the molecule `COC(=O)[C@H](Cc1cccc(C(=N)N)c1)[C@@H](C)NC(=O)c1ccc(-c2cc[n+]([O-])cc2)cc1` [NCGC00378763, Otamixaban], the “Activity” value in data set [1] is on record as “efficient activity”. In addition, the “Calu3 cytotoxicity Efficacy” value in the data set on Calu3 cells is reported as 0%.

In general, IC50 refers to the concentration at which inhibition is half-maximal. A lower IC50 goes with inhibition by little substance. For `N=C(N)c1ccc2cc(OC(=O)c3ccc(N=C(N)N)cc3)ccc2c1` [NCGC00160398, Nafamostat], in data set [1], the “Activity” value is “high potency and efficacy”. In addition, the “Calu3 cytotoxicity Efficacy” value in the data set on Calu3 cells amounted to 38.74%. The half-inhibitory concentration (IC50) in the data set “in vitro” is 15.8 µM.
